Holding throughout (experiment): SILAC LC-MS ABPP
What all share (type): cell-based
Settings in all cases: 25 μM 2 h, live DM93 cells

One assay deals with T1, P53992 (Homo sapiens, UniProt P53992).
T1 construct: endogenous in cells; host or cells: DM93 cells (SILAC)
In a few lines:
(§1)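 Quantification uses SILAC ratios from LC-MS/MS of probe-modified tyrosine peptides. DM93 melanoma cells: heavy treated with 25 μM SuTEx ligand, light with DMSO (2 h, 37 °C), followed by HHS-475 probe at 100 μM for 2 h.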

Another assay addresses T2, Q13057 (Homo sapiens, UniProt Q13057).
T2 construct: performing SuTEx compound screening directly in cells; endogenous in cells; host or cells: DM93 cells (SILAC), soluble fraction
In outline: as §1

The next assay has as its target T3, Q7Z6E9 (Homo sapiens, UniProt Q7Z6E9).
T3 construct: endogenous in cells; host or cells: DM93 cells (SILAC), live-cell treatment
In outline:
as §1

Another assay concerns the target T4, P06396 (Homo sapiens, UniProt P06396).
T4 construct: endogenous in cells; host or cells: DM93 cells (SILAC)
In outline:
as §1

A further assay deals with T5, P09960 (Homo sapiens, UniProt P09960).
T5 construct: endogenous in cells; host or cells: DM93 cells (SILAC)
T5 sequence (P09960 whole entry): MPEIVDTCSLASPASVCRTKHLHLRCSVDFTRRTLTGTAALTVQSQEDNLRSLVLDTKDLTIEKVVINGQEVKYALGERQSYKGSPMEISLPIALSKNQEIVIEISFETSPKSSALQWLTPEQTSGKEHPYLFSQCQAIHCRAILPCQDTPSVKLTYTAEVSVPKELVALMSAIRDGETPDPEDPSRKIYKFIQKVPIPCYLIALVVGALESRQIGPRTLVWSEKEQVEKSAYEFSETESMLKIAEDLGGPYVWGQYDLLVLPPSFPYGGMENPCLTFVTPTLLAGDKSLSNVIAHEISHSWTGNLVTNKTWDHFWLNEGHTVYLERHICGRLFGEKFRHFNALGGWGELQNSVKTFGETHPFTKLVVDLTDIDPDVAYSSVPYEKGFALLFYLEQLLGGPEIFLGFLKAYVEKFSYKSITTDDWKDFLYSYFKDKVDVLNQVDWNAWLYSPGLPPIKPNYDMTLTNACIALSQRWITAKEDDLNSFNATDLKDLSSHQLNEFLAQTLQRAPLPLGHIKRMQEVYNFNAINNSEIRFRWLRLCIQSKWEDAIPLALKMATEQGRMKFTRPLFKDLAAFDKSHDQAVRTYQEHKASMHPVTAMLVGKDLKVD
In outline:
as §1

Another assay deals with T6, Q9H788 (Homo sapiens, UniProt Q9H788).
T6 construct: endogenous in cells; host or cells: DM93 cells (SILAC), treated live; soluble proteome analysed
T6 sequence (Q9H788 whole entry): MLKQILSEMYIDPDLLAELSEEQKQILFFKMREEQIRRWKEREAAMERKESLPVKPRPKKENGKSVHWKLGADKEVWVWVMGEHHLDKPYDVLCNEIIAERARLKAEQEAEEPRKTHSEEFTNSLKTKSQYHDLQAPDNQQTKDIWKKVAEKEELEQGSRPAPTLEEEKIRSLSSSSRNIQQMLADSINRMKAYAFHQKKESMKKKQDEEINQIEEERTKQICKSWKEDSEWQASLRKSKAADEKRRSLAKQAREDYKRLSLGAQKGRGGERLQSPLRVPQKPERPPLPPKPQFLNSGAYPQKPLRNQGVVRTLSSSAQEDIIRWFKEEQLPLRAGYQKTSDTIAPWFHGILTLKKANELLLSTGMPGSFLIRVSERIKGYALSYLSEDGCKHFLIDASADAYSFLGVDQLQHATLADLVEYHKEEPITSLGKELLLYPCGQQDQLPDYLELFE
In outline:
as §1

The target in a further assay is T7, Q9HAU0 (Homo sapiens, UniProt Q9HAU0).
T7 construct: endogenous in cells; host or cells: DM93 cells (SILAC), treated live; soluble proteome analysed
In a few lines: as §1

A further assay deals with T8, Q9UMX5 (Homo sapiens, UniProt Q9UMX5).
T8 construct: endogenous in cells; host or cells: DM93 cells (SILAC)
T8 sequence (Q9UMX5 32-172): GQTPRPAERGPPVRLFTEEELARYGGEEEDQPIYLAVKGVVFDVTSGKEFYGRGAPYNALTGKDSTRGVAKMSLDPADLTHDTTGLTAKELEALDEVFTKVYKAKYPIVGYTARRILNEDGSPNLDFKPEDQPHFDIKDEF
In outline: as §1

Another assay has as its target T9, P48147 (Homo sapiens, UniProt P48147).
T9 construct: endogenous in cells; host or cells: DM93 cells (SILAC)
In outline:
as §1

The next assay addresses T10, P62263 (Homo sapiens, UniProt P62263).
T10 construct: performing SuTEx compound screening directly in cells; endogenous in cells; host or cells: DM93 cells (SILAC)
In outline: as §1

The target of a further assay is T11, Q8IWS0 (Homo sapiens, UniProt Q8IWS0).
T11 construct: endogenous in cells; host or cells: DM93 cells (SILAC), live-cell treatment
In outline: as §1

A further assay concerns the target T12, P14550 (Homo sapiens, UniProt P14550).
T12 construct: endogenous in cells; host or cells: DM93 cells (SILAC)
In outline:
as §1

A further assay concerns the target T13, P51003 (Homo sapiens, UniProt P51003).
T13 construct: Probe-modified proteins from the soluble fraction were conjugated to a desthiobiotin-azide tag; endogenous in cells; host or cells: DM93 cells (SILAC)
In a few lines: as §1

Another assay addresses T14, Q7Z6M1 (Homo sapiens, UniProt Q7Z6M1).
T14 construct: endogenous in cells; host or cells: DM93 cells (SILAC), live-cell treatment
In outline: as §1

The target in the next assay is T15, O60828 (Homo sapiens, UniProt O60828).
T15 construct: endogenous in cells; host or cells: DM93
T15 sequence (O60828 whole entry): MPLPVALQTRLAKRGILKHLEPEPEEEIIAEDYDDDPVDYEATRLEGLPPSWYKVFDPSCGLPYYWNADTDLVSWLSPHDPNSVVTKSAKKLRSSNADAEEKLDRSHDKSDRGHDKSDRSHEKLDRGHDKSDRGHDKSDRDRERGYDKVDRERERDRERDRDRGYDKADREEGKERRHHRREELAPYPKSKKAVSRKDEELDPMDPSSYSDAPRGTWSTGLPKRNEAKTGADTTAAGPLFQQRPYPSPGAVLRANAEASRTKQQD
In a few lines:
as §1

The next assay has as its target T16, P28482 (Homo sapiens, UniProt P28482).
T16 construct: endogenous in cells; host or cells: DM93 (SILAC)
In outline: as §1

The next assay addresses T17, Q01082 (Homo sapiens, UniProt Q01082).
T17 construct: performing SuTEx compound screening directly in cells; endogenous in cells; host or cells: DM93 cells (SILAC)
In a few lines:
as §1

For another assay, the target named is T18, Q92974 (Homo sapiens, UniProt Q92974).
T18 construct: endogenous in cells; host or cells: DM93 cells (SILAC), live-cell treatment
In a few lines: as §1

T3 sequence (Q7Z6E9 whole entry): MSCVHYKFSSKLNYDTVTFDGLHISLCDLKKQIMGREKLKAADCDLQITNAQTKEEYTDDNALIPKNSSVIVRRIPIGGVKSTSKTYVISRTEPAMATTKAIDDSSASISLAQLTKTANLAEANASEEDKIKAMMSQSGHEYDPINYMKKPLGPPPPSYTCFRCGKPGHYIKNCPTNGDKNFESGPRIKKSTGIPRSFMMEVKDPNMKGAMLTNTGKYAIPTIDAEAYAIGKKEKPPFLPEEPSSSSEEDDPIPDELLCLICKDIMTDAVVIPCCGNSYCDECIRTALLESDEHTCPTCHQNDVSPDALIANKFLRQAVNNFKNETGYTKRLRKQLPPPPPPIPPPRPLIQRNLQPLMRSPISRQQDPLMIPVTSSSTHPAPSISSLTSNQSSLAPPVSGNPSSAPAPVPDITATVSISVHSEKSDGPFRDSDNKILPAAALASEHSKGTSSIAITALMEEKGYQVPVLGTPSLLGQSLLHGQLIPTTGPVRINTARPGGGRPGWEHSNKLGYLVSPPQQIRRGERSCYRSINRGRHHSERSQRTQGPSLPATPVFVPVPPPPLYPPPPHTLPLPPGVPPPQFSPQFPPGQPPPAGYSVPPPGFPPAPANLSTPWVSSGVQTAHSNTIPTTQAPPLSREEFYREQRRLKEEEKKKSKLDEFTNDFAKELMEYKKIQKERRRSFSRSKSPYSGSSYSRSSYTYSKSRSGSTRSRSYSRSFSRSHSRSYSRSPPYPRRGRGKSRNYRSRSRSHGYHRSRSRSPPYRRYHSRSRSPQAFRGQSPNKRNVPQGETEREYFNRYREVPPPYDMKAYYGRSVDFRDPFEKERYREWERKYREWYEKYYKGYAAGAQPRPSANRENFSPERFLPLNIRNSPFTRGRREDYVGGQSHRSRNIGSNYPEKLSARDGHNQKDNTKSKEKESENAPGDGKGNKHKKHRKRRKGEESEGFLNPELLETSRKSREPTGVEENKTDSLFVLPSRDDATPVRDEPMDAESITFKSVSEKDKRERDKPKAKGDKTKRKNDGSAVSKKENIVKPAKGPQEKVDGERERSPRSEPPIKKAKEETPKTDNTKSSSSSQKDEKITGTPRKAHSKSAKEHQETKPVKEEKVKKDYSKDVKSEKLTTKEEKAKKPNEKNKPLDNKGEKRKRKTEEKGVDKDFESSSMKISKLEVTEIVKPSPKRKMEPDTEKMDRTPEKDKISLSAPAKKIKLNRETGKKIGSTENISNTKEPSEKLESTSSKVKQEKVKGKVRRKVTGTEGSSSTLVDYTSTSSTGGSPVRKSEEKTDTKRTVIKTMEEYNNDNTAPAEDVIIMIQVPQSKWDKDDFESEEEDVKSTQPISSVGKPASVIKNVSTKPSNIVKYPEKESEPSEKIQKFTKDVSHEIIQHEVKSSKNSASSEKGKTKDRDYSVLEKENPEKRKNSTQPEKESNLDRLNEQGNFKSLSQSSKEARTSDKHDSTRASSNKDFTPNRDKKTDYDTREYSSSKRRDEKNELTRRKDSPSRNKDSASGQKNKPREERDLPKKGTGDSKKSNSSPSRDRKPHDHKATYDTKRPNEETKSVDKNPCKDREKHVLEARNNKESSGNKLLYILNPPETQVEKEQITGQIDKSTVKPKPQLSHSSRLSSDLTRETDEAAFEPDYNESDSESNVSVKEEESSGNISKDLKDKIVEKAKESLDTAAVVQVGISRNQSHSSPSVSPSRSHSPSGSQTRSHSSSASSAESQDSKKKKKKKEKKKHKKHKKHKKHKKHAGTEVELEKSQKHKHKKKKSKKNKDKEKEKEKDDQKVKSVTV
T13 sequence (P51003 whole entry): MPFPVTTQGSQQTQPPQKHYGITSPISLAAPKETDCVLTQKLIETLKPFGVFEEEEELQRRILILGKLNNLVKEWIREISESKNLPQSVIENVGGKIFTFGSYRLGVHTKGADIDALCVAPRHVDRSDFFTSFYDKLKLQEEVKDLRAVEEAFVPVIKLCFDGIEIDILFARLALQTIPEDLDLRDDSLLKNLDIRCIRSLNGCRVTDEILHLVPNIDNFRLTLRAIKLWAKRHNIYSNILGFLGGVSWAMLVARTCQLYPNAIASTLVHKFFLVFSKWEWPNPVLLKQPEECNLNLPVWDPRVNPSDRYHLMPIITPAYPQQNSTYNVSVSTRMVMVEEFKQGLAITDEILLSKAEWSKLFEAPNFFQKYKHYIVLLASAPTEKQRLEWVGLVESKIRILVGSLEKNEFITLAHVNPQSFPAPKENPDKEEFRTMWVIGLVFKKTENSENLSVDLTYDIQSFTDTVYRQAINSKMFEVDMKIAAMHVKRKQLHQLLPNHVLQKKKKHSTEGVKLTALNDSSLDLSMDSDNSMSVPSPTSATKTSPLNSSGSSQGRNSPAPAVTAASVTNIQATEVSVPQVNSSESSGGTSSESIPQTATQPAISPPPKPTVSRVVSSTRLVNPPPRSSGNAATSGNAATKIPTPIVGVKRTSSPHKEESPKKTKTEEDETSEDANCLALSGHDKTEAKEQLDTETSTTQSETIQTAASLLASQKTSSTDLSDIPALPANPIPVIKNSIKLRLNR
T12 sequence (P14550 whole entry): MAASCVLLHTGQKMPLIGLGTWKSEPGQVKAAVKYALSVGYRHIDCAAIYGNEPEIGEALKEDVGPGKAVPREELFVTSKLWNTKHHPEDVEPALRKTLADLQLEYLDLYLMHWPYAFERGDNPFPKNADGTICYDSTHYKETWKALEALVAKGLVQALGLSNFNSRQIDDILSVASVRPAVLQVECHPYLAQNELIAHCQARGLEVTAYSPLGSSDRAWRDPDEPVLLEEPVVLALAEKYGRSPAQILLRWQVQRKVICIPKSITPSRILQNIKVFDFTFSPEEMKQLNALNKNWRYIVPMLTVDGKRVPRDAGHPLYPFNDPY
T2 sequence (Q13057 whole entry): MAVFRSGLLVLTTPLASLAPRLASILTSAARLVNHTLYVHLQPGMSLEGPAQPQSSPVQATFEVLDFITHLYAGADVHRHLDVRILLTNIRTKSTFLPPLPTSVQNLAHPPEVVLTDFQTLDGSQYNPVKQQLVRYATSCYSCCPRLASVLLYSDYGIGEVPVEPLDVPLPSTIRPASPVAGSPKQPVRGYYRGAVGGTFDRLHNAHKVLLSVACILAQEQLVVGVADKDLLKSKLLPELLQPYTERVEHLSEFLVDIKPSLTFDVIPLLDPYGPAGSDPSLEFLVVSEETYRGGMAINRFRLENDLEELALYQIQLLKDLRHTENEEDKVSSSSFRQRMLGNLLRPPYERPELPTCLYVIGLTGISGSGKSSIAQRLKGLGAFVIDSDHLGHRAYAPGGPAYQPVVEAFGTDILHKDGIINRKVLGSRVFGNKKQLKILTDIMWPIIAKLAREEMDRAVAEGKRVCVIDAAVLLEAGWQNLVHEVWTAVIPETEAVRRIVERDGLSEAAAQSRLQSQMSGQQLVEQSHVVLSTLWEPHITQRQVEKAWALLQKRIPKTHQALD

Take `O=C(NC1CCCCC1)c1ccc(S(=O)(=O)n2cncn2)cc1` [HHS-0301, 4-((1H-1,2,4-triazol-1-yl)sulfonyl)-N-cyclohexylbenzamide]: the “liganded tyrosine site 300” value at P53992 was “HHS0301.Y (tyrosine sites that showed >80% reductions (SR >5) in probe labeling in cells treated with compounds (liganded sites))”. In addition, at Q13057, the “liganded tyrosine site 126” value is listed as “HHS0301.Y (tyrosine sites that showed >80% reductions (SR >5) in probe labeling in cells treated with compounds (liganded sites))”. In addition, the “liganded tyrosine site 218” value at Q7Z6E9 was “HHS0301.Y (tyrosine sites that showed >80% reductions (SR >5) in probe labeling in cells treated with compounds (liganded sites))”.

In the case of `O=C(c1ccc(S(=O)(=O)n2cncn2)cc1)N1CCC(c2ccccc2)CC1` [HHS-0701, (4-((1H-1,2,4-triazol-1-yl)sulfonyl)phenyl)(4-phenylpiperidin-1-yl)methanone], the “liganded tyrosine site 469” value on P06396 is reported as “HHS0701.Y (tyrosine sites that showed >80% reductions (SR >5) in probe labeling in cells treated with compounds (liganded sites))”. Also, on P09960, the “liganded tyrosine site 379” value was “HHS0701.Y (tyrosine sites that showed >80% reductions (SR >5) in probe labeling in cells treated with compounds (liganded sites))” and the “liganded tyrosine site 384” value is “HHS0701.Y (tyrosine sites that showed >80% reductions (SR >5) in probe labeling in cells treated with compounds (liganded sites))”. Also, the “liganded tyrosine site 194” value on Q9H788 was “HHS0701.Y (tyrosine sites that showed >80% reductions (SR >5) in probe labeling in cells treated with compounds (liganded sites))”. Further, at Q9HAU0, the “liganded tyrosine site 553” value was “HHS0701.Y (tyrosine sites that showed >80% reductions (SR >5) in probe labeling in cells treated with compounds (liganded sites))”. The “liganded tyrosine site 82” value on Q9UMX5 is “HHS0701.Y (tyrosine sites that showed >80% reductions (SR >5) in probe labeling in cells treated with compounds (liganded sites))”.

In the case of `O=C(NCC1CC1)c1ccc(S(=O)(=O)n2cncn2)cc1` [HHS-0201, 4-((1H-1,2,4-triazol-1-yl)sulfonyl)-N-(cyclopropylmethyl)benzamide], the “liganded tyrosine site 473” value at P48147 is “HHS0201.Y (tyrosine sites that showed >80% reductions (SR >5) in probe labeling in cells treated with compounds (liganded sites))”. Besides, the “liganded tyrosine site 72” value at P62263 was “HHS0201.Y|HHS0301.Y (tyrosine sites that showed >80% reductions (SR >5) in probe labeling in cells treated with compounds (liganded sites))”. For the same molecule, the “liganded tyrosine site 303” value on Q8IWS0 was “HHS0201.Y (tyrosine sites that showed >80% reductions (SR >5) in probe labeling in cells treated with compounds (liganded sites))”.

In the case of `O=C(NCc1ccccc1)c1ccc(S(=O)(=O)n2cncn2)cc1` [HHS-0401, 4-((1H-1,2,4-triazol-1-yl)sulfonyl)-N-benzylbenzamide], at P14550, the “liganded tyrosine site 135” value is listed as “HHS0401.Y (tyrosine sites that showed >80% reductions (SR >5) in probe labeling in cells treated with compounds (liganded sites))”. In addition, the “liganded tyrosine site 327” value at P51003 is “HHS0401.Y|HHS0701.Y (tyrosine sites that showed >80% reductions (SR >5) in probe labeling in cells treated with compounds (liganded sites))”. Besides, the “liganded tyrosine site 87” value on Q7Z6M1 was “HHS0401.Y|HHS0701.Y (tyrosine sites that showed >80% reductions (SR >5) in probe labeling in cells treated with compounds (liganded sites))”.

In the case of `O=C(NC1CC1)c1ccc(S(=O)(=O)n2cncn2)cc1` [HHS-0101, 4-((1H-1,2,4-triazol-1-yl)sulfonyl)-N-cyclopropylbenzamide], on O60828, the “liganded tyrosine site 209” value is recorded as “HHS0101.Y|HHS0401.Y (tyrosine sites that showed >80% reductions (SR >5) in probe labeling in cells treated with compounds (liganded sites))”. Moreover, the “liganded tyrosine site 113” value at P28482 is listed as “HHS0101.Y (tyrosine sites that showed >80% reductions (SR >5) in probe labeling in cells treated with compounds (liganded sites))”. On Q01082, the “liganded tyrosine site 777” value was “HHS0101.Y|HHS0201.Y|HHS0401.Y (tyrosine sites that showed >80% reductions (SR >5) in probe labeling in cells treated with compounds (liganded sites))”. Also, at Q92974, the “liganded tyrosine site 894” value was “HHS0101.Y|HHS0401.Y (tyrosine sites that showed >80% reductions (SR >5) in probe labeling in cells treated with compounds (liganded sites))”.
